In patent US6958355B2, “Materials and methods for the treatment of diabetes, hyperlipidemia, hypercholesterolemia, and atherosclerosis” (ARYx Therapeutics, Inc., priority 2000, dated 2005):

System: NIDDM KK-A^y male mice
Test: Activity on serum glucose and insulin levels in NIDDM KK-A^y male mice
Format: in vivo
Settings: percent reduction relative to pre-treatment values, 10 mg/kg orally, twice a day, 5 consecutive days, blood sampled 90 minutes after the last dose
From the text: Representative compounds were chosen and evaluated for activity on serum glucose and insulin levels in non-insulin dependent diabetic mellitus (NIDDM) KK-A^y male mice. Post-treatment data for each group were transferred to a percentage of pretreatment values and unpaired Student's t test was used for comparison between vehicle and test substance treated groups. […] The results are presented in Table XXI and in FIGS. 19 and 20.
Activity in NIDDM KK-A^y male mice. Non-insulin dependent diabetic mellitus male mice, weighing 50+/−5 g (9-10 weeks of age) were used. […] The test compounds 105, 115, and 155, and the positive control compound troglitazone were suspended in a 1% carboxymethylcellulose preparation and were given orally at a dose of 10 mg/kg, twice a day, for 5 consecutive days. Blood sampling was performed before the first dose and then 90 minutes after the last dose. Serum glucose and insulin levels were measured.

Q: Which results are given for Cc1c(C)c2c(c(C)c1O)CCC(C)(COc1ccc(CC3SC(=O)NC3=O)cc1)O2 (centres unmarked) [Troglitazone, troglitazone]?
A: Serum Glucose (%): 35%; Serum Insulin (%): 15%
